What follows are molecules tested against Human RSK2 (Homo sapiens (Human), UniProt P51812) (assay: Human RSK2 assay (Kinase Glo Plus, residual ATP);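 further: recombinant human RSK2 phosphorylating a substrate peptide, 90 min at 28 °C, leftover ATP read by luminescence, RLU scaled between no-kinase background and uninhibited kinase controls, 4-parameter fit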).
Type: biochemical

Human RSK2, sequence (P51812 whole entry): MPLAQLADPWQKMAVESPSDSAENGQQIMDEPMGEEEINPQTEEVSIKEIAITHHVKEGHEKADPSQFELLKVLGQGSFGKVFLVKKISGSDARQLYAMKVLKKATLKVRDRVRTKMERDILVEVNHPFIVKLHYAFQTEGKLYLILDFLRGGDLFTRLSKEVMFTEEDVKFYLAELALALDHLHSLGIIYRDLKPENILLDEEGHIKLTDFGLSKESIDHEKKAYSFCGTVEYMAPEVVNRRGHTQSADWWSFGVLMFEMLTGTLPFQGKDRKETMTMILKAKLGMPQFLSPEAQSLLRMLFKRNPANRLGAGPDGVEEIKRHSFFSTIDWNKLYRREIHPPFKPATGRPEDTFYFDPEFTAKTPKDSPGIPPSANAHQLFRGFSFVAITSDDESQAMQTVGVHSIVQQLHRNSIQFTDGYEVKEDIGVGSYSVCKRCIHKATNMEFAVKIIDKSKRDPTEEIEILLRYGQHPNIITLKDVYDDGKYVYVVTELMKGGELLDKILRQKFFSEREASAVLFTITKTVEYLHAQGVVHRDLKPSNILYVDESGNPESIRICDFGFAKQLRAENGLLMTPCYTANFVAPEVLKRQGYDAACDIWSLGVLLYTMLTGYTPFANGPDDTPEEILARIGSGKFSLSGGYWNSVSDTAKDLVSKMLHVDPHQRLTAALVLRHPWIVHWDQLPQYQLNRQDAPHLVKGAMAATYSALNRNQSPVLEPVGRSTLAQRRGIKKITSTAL

| Structure (SMILES) | IC50 [nM] |
| --- | --- |
| CC(C)n1ncc2cc(NC(=O)c3ccc4cc5n(c4c3)CCCNC5=O)cnc21 [Example 19, 1-oxo-N-[1-(propan-2-yl)-1H-pyrazolo[3,4-b]pyridin-5-yl]-2,3,4,5-tetrahydro-1H-[1,4]diazepino[1,2-a]indole-8-carboxamide] | 53 |
| Cn1ncc2cc(NC(=O)c3ccc4cc5n(c4c3)CCCNC5=O)cnc21 [Example 20, N-(1-methyl-1H-pyrazolo[3,4-b]pyridin-5-yl)-1-oxo-2,3,4,5-tetrahydro-1H-[1,4]diazepino[1,2-a]indole-8-carboxamide] | 87 |
| Cn1cc(NC(=O)c2ccc3cc4n(c3c2)CC2(CCC2)CNC4=O)cn1 [Example 24, N-(1-methyl-1H-pyrazol-4-yl)-1′-oxo-2′,3′-dihydro-1′H-spiro[cyclobutane-1,4′-[1,4]diazepino[1,2-a]indole]-8′-carboxamide] | 320 |
| CC(C)n1cc(NC(=O)c2ccc3cc4n(c3c2)CCCNC4=O)cn1 [Example 25, 1-oxo-N-[1-(propan-2-yl)-1H-pyrazol-4-yl]-2,3,4,5-tetrahydro-1H-[1,4]diazepino[1,2-a]indole-8-carboxamide] | 14 |
| O=C(Nc1cnn(C2CCOC2)c1)c1ccc2cc3n(c2c1)CCCNC3=O (centres unmarked) [Example 26, 1-oxo-N-[1-(tetrahydrofuran-3-yl)-1H-pyrazol-4-yl]-2,3,4,5-tetrahydro-1H-[1,4]diazepino[1,2-a]indole-8-carboxamide] | 27 |
| O=C(Nc1cnn(C2CCOCC2)c1)c1ccc2cc3n(c2c1)CCCNC3=O [Example 27, 1-oxo-N-[1-(tetrahydro-2H-pyran-4-yl)-1H-pyrazol-4-yl]-2,3,4,5-tetrahydro-1H-[1,4]diazepino[1,2-a]indole-8-carboxamide] | 46 |
| O=C(Nc1cnn(Cc2ccccc2)c1)c1ccc2cc3n(c2c1)CC1(CCOCC1)CNC3=O [Example 31, N-(1-benzyl-1H-pyrazol-4-yl)-1-oxo-2,2′,3,3′,5′,6′-hexahydro-1H-spiro[1,4-diazepino[1,2-a]indole-4,4′-pyran]-8-carboxamide] | 900 |
| CN(C)CCCn1cc(NC(=O)c2ccc3cc4n(c3c2)CCCNC4=O)cn1 [Example 36, N-{1-[3-(dimethylamino)propyl]-1H-pyrazol-4-yl}-1-oxo-2,3,4,5-tetrahydro-1H-[1,4]diazepino[1,2-a]indole-8-carboxamide] | 84 |
| O=C(Nc1cnn(CCN2CCOCC2)c1)c1ccc2cc3n(c2c1)CCCNC3=O [Example 37, N-{1-[2-(morpholin-4-yl)ethyl]-1H-pyrazol-4-yl}-1-oxo-2,3,4,5-tetrahydro-1H-[1,4]diazepino[1,2-a]indole-8-carboxamide] | 84 |
| COCCn1cc(NC(=O)c2ccc3cc4n(c3c2)CCCNC4=O)cn1 [Example 38, N-[1-(2-methoxyethyl)-1H-pyrazol-4-yl]-1-oxo-2,3,4,5-tetrahydro-1H-[1,4]diazepino[1,2-a]indole-8-carboxamide] | 19 |
| O=C(Nc1nc2cc(C(F)(F)F)ccc2[nH]1)c1ccc2cc3n(c2c1)CCCNC3=O [Example 43, 1-oxo-N-[5-(trifluoromethyl)-1H-benzimidazol-2-yl]-2,3,4,5-tetrahydro-1H-[1,4]diazepino[1,2-a]indole-8-carboxamide] | 24 |
| Cn1c(NC(=O)c2ccc3cc4n(c3c2)CCCNC4=O)nc2cc(Cl)ccc21 [Example 49, N-(5-chloro-1-methyl-1H-benzimidazol-2-yl)-1-oxo-2,3,4,5-tetrahydro-1H-[1,4]diazepino[1,2-a]indole-8-carboxamide] | 26 |
| CN(C)CCCn1c(NC(=O)c2ccc3cc4n(c3c2)CC(C)(C)CNC4=O)nc2cc(Cl)ccc21 [Example 50, N-{5-chloro-1-[3-(dimethylamino)propyl]-1H-benzimidazol-2-yl}-4,4-dimethyl-1-oxo-2,3,4,5-tetrahydro-1H-[1,4]diazepino[1,2-a]indole-8-carboxamide] | 34 |
| Cn1c(NC(=O)c2ccc3cc4n(c3c2)CCCNC4=O)nc2ccc(Cl)cc21 [Example 52, N-(6-chloro-1-methyl-1H-benzimidazol-2-yl)-1-oxo-2,3,4,5-tetrahydro-1H-[1,4]diazepino[1,2-a]indole-8-carboxamide] | 170 |
| Cn1c(NC(=O)c2ccc3cc4n(c3c2)CC(C)(C)CNC4=O)nc2ccccc21 [Example 60, 4,4-dimethyl-N-(1-methyl-1H-benzimidazol-2-yl)-1-oxo-2,3,4,5-tetrahydro-1H-[1,4]diazepino[1,2-a]indole-8-carboxamide] | 20 |
| CC(C)(C)n1c(NC(=O)c2ccc3cc4n(c3c2)CCCNC4=O)nc2ccccc21 [Example 65, N-(1-tert-butyl-1H-benzimidazol-2-yl)-1-oxo-2,3,4,5-tetrahydro-1H-[1,4]diazepino[1,2-a]indole-8-carboxamide] | 19 |

Stronger by IC50, values ahead:

| IC50 [nM] | Structure (SMILES) |
| --- | --- |
| 5.1 | CC1CNC(=O)c2cc3ccc(C(=O)Nc4cnn(C)c4)cc3n21 (centres unmarked) [Example 22, 4-methyl-N-(1-methyl-1H-pyrazol-4-yl)-1-oxo-1,2,3,4-tetrahydropyrazino[1,2-a]indole-7-carboxamide] |
| 1.9 | Cc1cc(C)cc(Cn2cc(NC(=O)c3ccc4cc5n(c4c3)CCCNC5=O)cn2)c1 [Example 28, N-[1-(3,5-dimethylbenzyl)-1H-pyrazol-4-yl]-1-oxo-2,3,4,5-tetrahydro-1H-[1,4]diazepino[1,2-a]indole-8-carboxamide] |
| 4 | O=C(Nc1cnn(Cc2ccccc2)c1)c1ccc2cc3n(c2c1)CCCNC3=O [Example 32, N-(1-benzyl-1H-pyrazol-4-yl)-1-oxo-2,3,4,5-tetrahydro-1H-[1,4]diazepino[1,2-a]indole-8-carboxamide] |
| 7.9 | Cc1ccccc1Cn1cc(NC(=O)c2ccc3cc4n(c3c2)CCCNC4=O)cn1 [Example 34, N-[1-(2-methylbenzyl)-1H-pyrazol-4-yl]-1-oxo-2,3,4,5-tetrahydro-1H-[1,4]diazepino[1,2-a]indole-8-carboxamide] |
| 11 | CC(C)CCn1cc(NC(=O)c2ccc3cc4n(c3c2)CCCNC4=O)cn1 [Example 35, N-[1-(3-methylbutyl)-1H-pyrazol-4-yl]-1-oxo-2,3,4,5-tetrahydro-1H-[1,4]diazepino[1,2-a]indole-8-carboxamide] |
| 3 | Cc1ccc2[nH]c(NC(=O)c3ccc4cc5n(c4c3)CCCNC5=O)nc2c1 [Example 39, N-(5-methyl-1H-benzimidazol-2-yl)-1-oxo-2,3,4,5-tetrahydro-1H-[1,4]diazepino[1,2-a]indole-8-carboxamide] |
| 4.8 | CCn1c(NC(=O)c2ccc3cc4n(c3c2)CCCNC4=O)nc2cc(C)ccc21 [Example 40, N-(1-ethyl-5-methyl-1H-benzimidazol-2-yl)-1-oxo-2,3,4,5-tetrahydro-1H-[1,4]diazepino[1,2-a]indole-8-carboxamide] |
| 4.9 | N#Cc1ccc2[nH]c(NC(=O)c3ccc4cc5n(c4c3)CCCNC5=O)nc2c1 [Example 41, N-(5-cyano-1H-benzimidazol-2-yl)-1-oxo-2,3,4,5-tetrahydro-1H-[1,4]diazepino[1,2-a]indole-8-carboxamide] |
| 6.2 | CC(C)c1ccc2[nH]c(NC(=O)c3ccc4cc5n(c4c3)CCCNC5=O)nc2c1 [Example 42, 1-oxo-N-[5-(propan-2-yl)-1H-benzimidazol-2-yl]-2,3,4,5-tetrahydro-1H-[1,4]diazepino[1,2-a]indole-8-carboxamide] |
| 8.7 | O=C(Nc1nc2cc(Cl)cc(CN3CCOCC3)c2[nH]1)c1ccc2cc3n(c2c1)CCCNC3=O [Example 46, N-[5-chloro-7-(morpholin-4-ylmethyl)-1H-benzimidazol-2-yl]-1-oxo-2,3,4,5-tetrahydro-1H-[1,4]diazepino[1,2-a]indole-8-carboxamide] |
| 8 | O=C(Nc1nc2cc(Cl)ccc2[nH]1)c1ccc2cc3n(c2c1)CCCNC3=O [Example 47, N-(5-chloro-1H-benzimidazol-2-yl)-1-oxo-2,3,4,5-tetrahydro-1H-[1,4]diazepino[1,2-a]indole-8-carboxamide] |
| 5.2 | O=C(Nc1nc2cc(F)ccc2[nH]1)c1ccc2cc3n(c2c1)CCCNC3=O [Example 51, N-(5-fluoro-1H-benzimidazol-2-yl)-1-oxo-2,3,4,5-tetrahydro-1H-[1,4]diazepino[1,2-a]indole-8-carboxamide] |
| 4.4 | O=C(Nc1nc2ccccc2[nH]1)c1ccc2cc3n(c2c1)CCCNC3=O [Example 55, N-(1H-benzimidazol-2-yl)-1-oxo-2,3,4,5-tetrahydro-1H-[1,4]diazepino[1,2-a]indole-8-carboxamide] |
| 0.89 | CC1(C)CNC(=O)c2cc3ccc(C(=O)Nc4nc5ccccc5[nH]4)cc3n21 [Example 56, N-(1H-benzimidazol-2-yl)-4,4-dimethyl-1-oxo-1,2,3,4-tetrahydropyrazino[1,2-a]indole-7-carboxamide] |
| 0.59 | CC1CNC(=O)c2cc3ccc(C(=O)Nc4nc5ccccc5[nH]4)cc3n21 (centres unmarked) [Example 57, N-(1H-benzimidazol-2-yl)-4-methyl-1-oxo-1,2,3,4-tetrahydropyrazino[1,2-a]indole-7-carboxamide] |
| 0.77 | CC1CCNC(=O)c2cc3ccc(C(=O)Nc4nc5ccccc5[nH]4)cc3n21 (centres unmarked) [Example 58, N-(1H-benzimidazol-2-yl)-5-methyl-1-oxo-2,3,4,5-tetrahydro-1H-[1,4]diazepino[1,2-a]indole-8-carboxamide] |
| 0.62 | Cn1c(NC(=O)c2ccc3cc4n(c3c2)C(C)(C)CNC4=O)nc2ccccc21 [Example 59, 4,4-dimethyl-N-(1-methyl-1H-benzimidazol-2-yl)-1-oxo-1,2,3,4-tetrahydropyrazino[1,2-a]indole-7-carboxamide] |
| 2.2 | CC1CNC(=O)c2cc3ccc(C(=O)Nc4nc5ccccc5n4C)cc3n21 (centres unmarked) [Example 61, 4-methyl-N-(1-methyl-1H-benzimidazol-2-yl)-1-oxo-1,2,3,4-tetrahydropyrazino[1,2-a]indole-7-carboxamide] |
| 8.2 | CC1CNC(=O)c2cc3ccc(C(=O)Nc4nc5ccccc5n4C)cc3n2C1 (centres unmarked) [Example 62, 4-methyl-N-(1-methyl-1H-benzimidazol-2-yl)-1-oxo-2,3,4,5-tetrahydro-1H-[1,4]diazepino[1,2-a]indole-8-carboxamide] |
